Measured values reported in ChEMBL document CHEMBL2203235, “Optimization of a natural product-based class of γ-secretase modulators” (J Med Chem, 2012).

Legend:
[1] = Modulation of gamma-secretase assessed as reduction in amyloid beta 40 level by cell based assay
[2] = Modulation of gamma-secretase assessed as increase in amyloid beta 38 level by cell based assay
[3] = Modulation of gamma-secretase assessed as reduction in amyloid beta 42 level by cell based assay
[4] = Modulation of gamma secretase in CHO-2B7 cells assessed as reduction in amyloid beta 42 level after 5 hrs by MSD ELISA; type: cell-based; conditions: Cricetulus griseus, CHO-2B7, 5 h
CHO-2B7 = experiment: Modulation of gamma secretase in CHO-2B7 cells assessed as reduction in amyloid beta 42 level at 4 uM after 5 hrs by MSD ELISA; type: cell-based; parameters: scale not given: the % may be the effect or the level left; conditions: Cricetulus griseus

Q: What does the source list for `CC(=O)O[C@@H]([C@H]1C[C@@H](C)C2=C(O1)[C@H](O)[C@@]1(C)[C@@H]3CC[C@H]4C(C)(C)[C@@H](O[C@@H]5OC[C@@H](O)[C@H](O)[C@H]5O)CC[C@@]45C[C@@]35CC[C@]21C)C(C)(C)O`?
A: IC50 [1]: 2700 nM; IC50 [2]: 61 nM; IC50 [3]: 100 nM

Q: For `C[C@@H]1C[C@H]([C@H](O)C(C)(C)O)O[C@H]2[C@H]1[C@@]1(C)CC[C@@]34C[C@@]35CC[C@H](O[C@H]3CN(C(=O)CC6CC6)CCO3)C(C)(C)[C@@H]5CC[C@H]4[C@]1(C)[C@H]2O`, which IC50 [4] is on record?
A: 70 nM

Q: What about the Activity (CHO-2B7) of the same compound?
A: 40%
